Usually Ki stands for the equilibrium dissociation constant of an inhibitor or competing ligand from its target. Read a low Ki as higher affinity.

Test [1] concerns the target T1, human α4β2 subtype of nicotinic acetylcholine receptors (Homo sapiens, UniProt P17787+P43681).
T1 construct: expressed in transfected cells; host or cells: Xenopus laevis oocytes injected with hnACh-R α4 and β2 cRNA (pSP64 polyA vector)
The format is cell-based. The procedure:
The agonist effect in human α4β2 subtype of nicotinic acetylcholine receptors are examined by using human nicotinic acetylcholine receptors prepared in oocytes of Xenopus laevis, which is injected with cRNA from the corresponding cloning cDNA of human α4 and β2 subunits of nicotinic acetylcholine receptors, and to measure the expression of the electric response by adding the test compounds to perfusion solution by means of membrane potential holding method.
Agonist Activities at Human α4β2 Subtype of Nicotinic Acetylcholine Receptors
The agonist activities of the compounds of the present invention at human α4β2 subtype of nicotinic acetylcholine receptors was evaluated by the following method, which was modified method described by Papke R. L., Thinschmidt J. S., Moulton B. A., Meyer E. M. & Poirier A., Br. J. Pharmacol., 120, 429-438 (1997).
(1) Preparation of cRNA of Human α4β2 Subtype of Nicotinic Acetylcholine Receptors
The cloning of human nicotinic acetylcholine receptor (hnACh-R) α4 cDNA and hnAC-R β2 cDNA were performed, in accordance with the conventional manners, by synthesizing the each DNA primers corresponding to the sequences of hnACh-R α4 cDNA and hnACh-R β2 cDNA [Monteggia L. M. et al., Gene, 155, 189-193 (1995); and Anand R., & Lindstrom J., Nucl. Acids Res., 18, 4272 (1990)], and obtained hnACh-R α4 cDNA and hnACh-R β2 cDNA by polymerase chain reaction (PCR), respectively. The obtained hnACh-R α4 cDNA and hnACh-R β2 cDNA were inserted to the cRNA expression vector (pSP64 polyA) having SP6 RNA promoter to construct hnACh-R α4/pSP64 polyA and hnACh-R β2/pSP64 polyA, respectively. After cutting from expression vector by restriction enzyme (EcoRI), transcription was performed by affecting SP6 RNA polymerase in the presence of cap analogues to obtain hnACh-R α4 cRNA and hnACh-R β2 cRNA, respectively.
(2) Expression of Human α4β2 Subtype Nicotinic Acetylcholine Receptors in Xenopus Oocytes
Oocytes were purchased from Kitanihonseibustukyohzai Co., Ltd., which were already enucleated from Xenopus laevis, and used in this experiment.
The oocytes were treated with collagenase (Sigma type I; 1 mg/ml) in calcium-free modified Birth's solution (88 mM of NaCl, 1 mM of KCl, 2.4 mM of NaHCO3, 0.82 mM of MgSO4, 15 mM of HEPES, pH 7.6) under gently stirring at the room temperature for 90 minutes, and washed out the enzyme from the tissue. Then, oocytes were separated from ovarian follicle by tweezers, and isolated oocytes were placed in antibiotics containing modified Birth's solution (88 mM of NaCl, 1 mM of KCl, 2.4 mM of NaHCO3, 0.82 mM of MgSO4, 15 mM of HEPES, pH 7.6, and 0.1 v/v % of mixture solution containing of penicillin and streptomycin for incubation; Sigma Co.). Thus treated oocytes were injected with 50 nl of adjusted cRNAs (1.0 mg/ml), that is, each 50 ng of hnACh-R α4 cRNA and hnACh-R β2 cRNA per 1 oocyte by using automatic injector (NANOJECT; DRUMMOND […] CO.), and further incubated for 4-14 days at 19° C. In oocytes, heterogeneous quintuple [(α4)2(β2)3] was composed by translation of injected cRNAs, and ion channel receptors were constructed on cell membrane.
(3) Agonist Activities at Human α4β2 Subtype of Nicotinic Acetylcholine Receptors
The recordings of responses at human α4β2 subtype of nicotinic acetylcholine receptors by means of membrane potential holding method were performed as follow. […] Test compounds were added to the perfusion solution, and recorded the peak strength of induced inward electric current. […]

Test [2] deals with T2, α1β1γδ subtype of nicotinic acetylcholine receptors (Rattus norvegicus, UniProt P18916+P25108+P25109+P25110).
T2 construct: The centrifugation at 100,000×G for 60 minutes at 4° C. yielded the rat muscle extract as supernatant
T2 sequence (P25108 21-457): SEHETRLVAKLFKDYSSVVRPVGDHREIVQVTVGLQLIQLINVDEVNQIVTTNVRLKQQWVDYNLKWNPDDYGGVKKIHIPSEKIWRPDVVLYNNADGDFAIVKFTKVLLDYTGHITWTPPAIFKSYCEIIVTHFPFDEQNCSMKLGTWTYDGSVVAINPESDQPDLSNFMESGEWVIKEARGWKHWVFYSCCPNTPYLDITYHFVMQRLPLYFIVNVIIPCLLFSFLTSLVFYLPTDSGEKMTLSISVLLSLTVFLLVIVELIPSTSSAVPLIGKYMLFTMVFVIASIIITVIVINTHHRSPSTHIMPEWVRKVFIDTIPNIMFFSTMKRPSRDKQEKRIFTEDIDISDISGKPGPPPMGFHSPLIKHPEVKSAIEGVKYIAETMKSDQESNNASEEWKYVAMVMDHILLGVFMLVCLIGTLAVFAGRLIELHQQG
T2 sequence (P25109 24-501): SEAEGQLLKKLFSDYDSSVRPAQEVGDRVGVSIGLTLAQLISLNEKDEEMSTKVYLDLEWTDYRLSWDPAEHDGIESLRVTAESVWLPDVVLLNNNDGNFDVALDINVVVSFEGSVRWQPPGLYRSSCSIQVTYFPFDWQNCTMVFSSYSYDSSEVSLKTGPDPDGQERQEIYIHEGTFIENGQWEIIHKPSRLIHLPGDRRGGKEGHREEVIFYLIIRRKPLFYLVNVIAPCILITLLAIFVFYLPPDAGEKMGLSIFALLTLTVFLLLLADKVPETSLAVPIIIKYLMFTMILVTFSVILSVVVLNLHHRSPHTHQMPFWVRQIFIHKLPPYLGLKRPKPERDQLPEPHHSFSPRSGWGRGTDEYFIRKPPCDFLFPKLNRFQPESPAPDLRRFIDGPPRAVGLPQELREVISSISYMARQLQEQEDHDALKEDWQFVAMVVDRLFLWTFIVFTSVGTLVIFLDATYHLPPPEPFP
T2 sequence (P25110 22-517): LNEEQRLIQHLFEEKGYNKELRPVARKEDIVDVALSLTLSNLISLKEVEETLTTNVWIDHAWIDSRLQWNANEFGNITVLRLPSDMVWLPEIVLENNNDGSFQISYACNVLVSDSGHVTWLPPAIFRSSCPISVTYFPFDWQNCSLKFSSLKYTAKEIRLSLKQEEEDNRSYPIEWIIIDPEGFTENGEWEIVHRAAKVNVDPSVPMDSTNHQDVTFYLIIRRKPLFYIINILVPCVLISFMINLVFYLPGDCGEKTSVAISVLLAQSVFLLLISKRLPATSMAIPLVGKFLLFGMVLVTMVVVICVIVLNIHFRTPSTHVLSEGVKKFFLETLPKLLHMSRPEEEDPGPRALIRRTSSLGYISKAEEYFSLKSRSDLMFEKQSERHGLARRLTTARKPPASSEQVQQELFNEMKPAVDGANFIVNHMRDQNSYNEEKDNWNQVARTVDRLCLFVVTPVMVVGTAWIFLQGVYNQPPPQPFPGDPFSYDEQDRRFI
The test can be described thus: biochemical. The format is binding. An excerpt:
(§1) The methods for evaluating the binding capabilities of the compounds against nicotinic acetylcholine receptors are different by subtypes of receptors. The binding capabilities of the compounds at α4β2 nicotinic acetylcholine receptors are examined using rat brain membrane obtained from whole homogenized brain, and determining the inhibiting rate of the compounds against [^3H]-cytisine binding to said brain membrane. Furthermore, the binding capabilities of the compounds at α1β1γδ nicotinic acetylcholine receptors are examined using homogenized rat muscle, and determining the inhibiting rate of the compounds against [^3H]-α-bungarotoxin binding to said muscle membrane.
Binding Assays at α1β1γδ Subtype of Nicotinic Acetylcholine Receptors
The affinity of the compounds of the present invention to α1β1γδ subtype of nicotinic acetylcholine receptors was measured by the following method, which was modified method described by Garcha H. S., Thomas P., Spivak C.
(1) Preparation of Rat Skeletal Muscles Containing α1β1γδ Subtype of Nicotinic Acetylcholine Receptors
The substantially same animals described in the Biological Experiment 1 were used.
The isolation of α1β1γδ subtype of nicotinic acetylcholine receptors was performed as follow. That is, rat posterior skeletal muscles were isolated just after sacrificed by decapitation, washed with ice-cooled saline solution and then frozen at −80° C. with liquid nitrogen and stored till using. After thawing the frozen muscles, tissue was homogenized (40% w/v) with buffer solution [2.5 mM of sodium phosphate buffer (pH:7.2), 90 mM of NaCl, 2 mM of KCl, 1 mM of EDTA, 2 mM of benzamidine, 0.1 mM of benzethonium chloride, 0.1 mM of PMSF, 0.01% of sodium azide] in Waring blender [Waring blender 34BL97; WARING PRODUCTS DIVISION DYNAMICS CORPORATION OF AMERICA) for 60 seconds. The homogenate were centrifuged under 20,000×G for 60 minutes at 4° C. The supernatant was separated and the resulting pellet was added to the same buffer (1.5 ml/g wet weight), and homogenized under the same conditions. Triton X100 (2% w/v) was added and the mixture was stirred for 3 hours at 4° C. The centrifugation at 100,000×G for 60 minutes at 4° C. yielded the rat muscle extract as supernatant. This was stored at 4° C. for up to 4 weeks, and used for binding assays at receptors.
(2) Experiments of α1β1γδ Subtype of Nicotinic Acetylcholine Receptors Binding
Receptors binding experiments were performed as follow. That is, the extract of rat muscle containing 600-900 μg of protein was added to test tubes containing test compounds and incubated for 15 minutes at 37° C. Then, to this mixture was added 1 nM of [^3H]-α-bungarotoxin (α-Bgt) and further incubated for 2 hours. The samples were isolated by vacuum filtration onto Whatman GF/B filters, which were prerinsed with 0.5% polyethylenimine just prior to sample filtration, using Brandel multi manifold cell harvester. The filters were rapidly rinsed with washing solution (10 mM of KH2PO4, 150 mM of NaCl, pH 7.2, room temperature) (5×1 ml). The filters were counted in 3 ml of clearsol I (Nacalai Tesque Inc.). The determination of nonspecific binding was incubated in the presence of 1 μM α-Bgt. […] In the receptor binding experiments, said buffer solution was added for adjusting the final concentration of BSA to be 0.05%.
The analyses of the experimental results were conducted by as described in the Biological Experiment 1.

In test [3] the target is T3, α4β2 subtype of nicotinic acetylcholine receptors (Rattus norvegicus, UniProt P09483+P12390).
T3 construct: examined using rat brain membrane obtained from whole homogenized brain; from tissue; host or cells: whole brain membranes of Fischer-344 male rats
T3 sequence (P09483 31-630): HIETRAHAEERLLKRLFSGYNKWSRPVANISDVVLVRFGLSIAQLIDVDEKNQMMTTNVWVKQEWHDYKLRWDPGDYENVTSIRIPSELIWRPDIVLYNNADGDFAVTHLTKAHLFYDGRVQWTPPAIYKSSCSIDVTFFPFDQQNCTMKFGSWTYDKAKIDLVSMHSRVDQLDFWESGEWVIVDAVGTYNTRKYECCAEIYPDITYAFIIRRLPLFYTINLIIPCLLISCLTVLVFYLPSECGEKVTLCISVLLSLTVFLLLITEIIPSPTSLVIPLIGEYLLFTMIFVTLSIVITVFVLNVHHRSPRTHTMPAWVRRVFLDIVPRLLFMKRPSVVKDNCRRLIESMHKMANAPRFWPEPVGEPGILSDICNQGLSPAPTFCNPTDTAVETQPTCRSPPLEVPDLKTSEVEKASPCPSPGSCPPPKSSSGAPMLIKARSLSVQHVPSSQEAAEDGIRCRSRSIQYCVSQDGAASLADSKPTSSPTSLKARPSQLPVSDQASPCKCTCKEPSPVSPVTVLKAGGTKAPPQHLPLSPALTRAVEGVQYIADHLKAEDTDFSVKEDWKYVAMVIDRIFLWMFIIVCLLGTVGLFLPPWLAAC
T3 sequence (P12390 25-500): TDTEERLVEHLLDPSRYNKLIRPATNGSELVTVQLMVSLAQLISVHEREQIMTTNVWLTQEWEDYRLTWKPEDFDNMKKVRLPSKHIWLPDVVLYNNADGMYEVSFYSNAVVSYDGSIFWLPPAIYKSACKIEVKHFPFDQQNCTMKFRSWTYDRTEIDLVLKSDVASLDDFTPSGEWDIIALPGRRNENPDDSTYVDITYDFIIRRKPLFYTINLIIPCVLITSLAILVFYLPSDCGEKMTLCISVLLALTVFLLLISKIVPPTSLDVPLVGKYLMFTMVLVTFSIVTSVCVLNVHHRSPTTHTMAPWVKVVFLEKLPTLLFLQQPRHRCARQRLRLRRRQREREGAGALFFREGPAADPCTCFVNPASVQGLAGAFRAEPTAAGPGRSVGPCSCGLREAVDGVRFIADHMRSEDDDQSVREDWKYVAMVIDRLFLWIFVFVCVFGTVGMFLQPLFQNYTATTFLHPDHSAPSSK
The test can be described thus: Binding assay at α4β2 subtype of nicotinic acetylcholine receptors ([3H]-cytisine, rat brain membrane).
Description: as §1
Binding Assays at α4β2 Subtype of Nicotinic Acetylcholine Receptors
The affinity of the compounds of the present invention to α4β2 subunit of nicotinic acetylcholine receptors was performed by the following method, which was modified method described by Pabreza L. A., Dhawan S. & Kellar K. J., Mol. Pharm., 39, 9-12 (1990), and by Anderson D. J. & Arneric S. P., Eur. J. Pharm., 253, 261-267 (1994).
(1) Preparation of Rat Brain Membrane Containing α4β2 subtype of Nicotinic Acetylcholine Receptors
Fischer-344 strain male rats (body weight: 200-240 g; 9 weeks old) obtained from Charles River Japan were used. Rats were housed in the breeding cage controlled of the room temperature at 23±1° C., and the humidity of 55±5% for 1 to 4 weeks. Rats (3 to 4 rats per a cage) were housed with lights on for 12 hours daily (from 7:00 to 19:00), and allowed free access to food and water.
Preparation of rat brain membrane containing α4β2 subtype of nicotinic acetylcholine receptors was performed as follow. That is, rat brains were isolated just after sacrificed by decapitation, washed with ice-cooled saline solution and then frozen at −80° C. with liquid nitrogen and stored till using. After thawing the frozen brain, the brain was homogenized in 10 volumes of buffer solution (50 mM of Tris-HCl, 120 mM of NaCl, 5 mM of KCl, 1 mM of MgCl2, 2mM of CaCl2; pH 7.4; 4° C.) using homogenizer (HG30, Hitachi Kohki Ltd.) for 30 seconds, and the homogenate were centrifuged under 1,000×G for 10 minutes at 4° C. The resulting supernatant was separated and the pellet was homogenized again with half volume of aforementioned prior buffer solution and centrifuged under the same conditions. Combined supernatant was further centrifuged under 40,000×G for 20 minutes at 4° C. The pellet was suspended in buffer solution and used for binding assays at receptors.
(2) Experiments of α4β2 Subtype of Nicotinic Acetylcholine Receptors Binding
Suspensions of membrane pellets containing 400-600 μg of protein were added to test tubes containing test compounds and [^3H]-cytisine (2 nM) in a final volume of 200 μl and incubated for 75 minutes in ice-cooled bath. The samples were isolated by vacuum filtration onto Whatman GF/B filters, which were prerinsed with 0.5% polyethylenimine just prior to sample filtration, using Brandel multi manifold cell harvester. The filters were rapidly washed with buffer solution (3×1 ml). The filters were counted in 3 ml of clearsol I (Nacalai Tesque Inc.).
The analyses of the experimental results were conducted by using the Accufit Competition Program (Beckman Ltd.).

T1 sequence (P43681 29-627 limits assumed): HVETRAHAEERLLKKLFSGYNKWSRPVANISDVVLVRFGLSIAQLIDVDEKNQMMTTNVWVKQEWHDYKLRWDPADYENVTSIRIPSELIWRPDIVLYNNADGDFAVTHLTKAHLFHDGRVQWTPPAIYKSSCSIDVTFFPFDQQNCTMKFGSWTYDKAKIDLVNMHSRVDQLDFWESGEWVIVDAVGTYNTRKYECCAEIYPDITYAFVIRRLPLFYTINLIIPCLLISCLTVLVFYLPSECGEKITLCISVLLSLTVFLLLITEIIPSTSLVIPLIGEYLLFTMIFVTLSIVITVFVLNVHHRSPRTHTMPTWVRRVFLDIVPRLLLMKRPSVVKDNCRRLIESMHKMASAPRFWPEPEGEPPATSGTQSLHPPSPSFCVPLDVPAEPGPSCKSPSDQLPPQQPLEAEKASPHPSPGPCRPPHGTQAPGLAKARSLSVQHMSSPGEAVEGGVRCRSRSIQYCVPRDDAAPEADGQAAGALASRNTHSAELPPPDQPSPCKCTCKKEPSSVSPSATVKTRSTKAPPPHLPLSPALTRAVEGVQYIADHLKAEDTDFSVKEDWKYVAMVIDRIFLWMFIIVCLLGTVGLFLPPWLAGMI
T1 sequence (P17787 26-502): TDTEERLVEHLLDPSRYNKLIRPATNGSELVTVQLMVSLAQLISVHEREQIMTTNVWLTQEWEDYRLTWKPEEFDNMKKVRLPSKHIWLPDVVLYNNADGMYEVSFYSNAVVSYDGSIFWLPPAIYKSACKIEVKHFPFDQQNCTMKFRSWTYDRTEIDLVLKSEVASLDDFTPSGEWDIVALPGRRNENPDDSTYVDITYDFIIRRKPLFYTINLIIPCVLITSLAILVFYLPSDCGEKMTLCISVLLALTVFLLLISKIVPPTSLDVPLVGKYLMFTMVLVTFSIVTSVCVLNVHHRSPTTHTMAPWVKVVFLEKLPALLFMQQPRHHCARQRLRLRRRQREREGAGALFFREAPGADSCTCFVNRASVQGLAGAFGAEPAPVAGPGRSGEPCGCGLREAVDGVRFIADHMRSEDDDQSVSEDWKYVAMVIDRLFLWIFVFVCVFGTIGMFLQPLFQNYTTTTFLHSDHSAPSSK

In test [1], `CN1CCCC1c1cccnc1` (single isomer, unassigned; (-)) [Nicotine, (−)-nicotine, reference compound] showed an Agonist effect of 146%.

For `Clc1ccc(CC/N=C2\SCCN2Cc2ccc(Cl)nc2)cn1` [Compound 15, 3-(6-chloro-3-pyridyl)methyl-2-[2-(6-chloro-3-pyridyl)ethyl]iminothiazolidine], the Ki in test [2] came out at 479 µM; in test [3] it was 0.086 µM.

For the origin of these results see patent US6900202B2, “Di-substituted imineheterocyclic compounds” (priority 2000, dated 2005).
